This is an account of results in patent publication US12552783B2, “Modulators of proteolysis and associated methods of use” (Arvinas Operations, Inc., priority 2018, dated 2026).

In the experiment the target is KRas (Homo sapiens, UniProt P01116, G12C). Description: KRas degradation in NCI-H2030 cells by Western blot, normalized to GAPDH (data of Table 14). The class given is cell-based. Set-up: host or cells: NCI-H2030. Particulars: for Dmax: NCI-H2030. The essentials: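 Cells plated overnight, switched to FBS-free medium for 24 h, then treated (0.3, 1, 3 μM final; 0.1% DMSO) for 24 h if VHL-based, otherwise 72 h. RIPA lysates (10 μg protein) blotted for KRas, signal normalized to GAPDH and compared with DMSO.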
For orientation: In western blotting, separated proteins are transferred to a membrane and probed.

Each structure is given as a SMILES string. Bounds are passed on as bounds.

By Dmax is commonly meant the greatest extent of degradation seen. Turning to `CCC(=O)N1CCN(c2nc(NCCC(=O)N(C)CCNc3cccc4c3C(=O)N(C3CCC(=O)NC3=O)C4=O)nc3c(F)c(-c4cc(O)cc5ccccc45)c(Cl)cc23)CC1` (stereo not drawn) [compound 41, 3-((6-chloro-8-fluoro-7-(3-hydroxynaphthalen-1-yl)-4-(4-propionylpiperazin-1-yl)quinazolin-2-yl)amino)-N-(2-((2-(2,6-dioxopiperidin-3-yl)-1,3-dioxoisoindolin-4-yl)amino)ethyl)-N-methylpropanamide], the “Percent Degradation at Indicated Concentration (μM): 0.3” value (from here on “Percent Degradation … 0.3”) (H2030 cells, 0.3 μM) is reported as “C (C ≤ 35)”. Further, the “Percent Degradation at Indicated Concentration (μM): 1” value (“Percent Degradation … 1” below) (H2030 cells, 1 μM) is “C (C ≤ 35)”. Moreover, the “Percent Degradation at Indicated Concentration (μM): 3” value (“Percent Degradation … (μM): 3” for short) (H2030 cells, 3 μM) is given as “C (C ≤ 35)”. The compound further came in with a Dmax (H2030 cells) of no more than 35%.
As for `C=CC(=O)N1CCN(c2nc(O[C@H](C)CN3CCC(OCCOCCOCCNc4cccc5c4C(=O)N(C4CCC(=O)NC4=O)C5=O)CC3)nc3c2CCN(c2cc(O)cc4ccccc24)C3)CC1` (stereo partly drawn) [compound 413, 4-((2-(2-(2-((1-((R)-2-((4-(4-acryloylpiperazin-1-yl)-7-(3-hydroxynaphthalen-1-yl)-5,6,7,8-tetrahydropyrido[3,4-d]pyrimidin-2-yl)oxy)propyl)piperidin-4-yl)oxy)ethoxy)ethoxy)ethyl)amino)-2-(2,6-dioxopiperidin-3-yl)isoindoline-1,3-dione], the “Percent Degradation at Indicated Concentration (μM)” value is “C (Percent Degradation: C ≤ 35)” (H2030 cells, 0.3 μM); “C (Percent Degradation: C ≤ 35)” (H2030 cells, 1 μM); “C (Percent Degradation: C ≤ 35)” (H2030 cells, 3 μM).
`CCC(=O)N1CCN(c2nc(NCCC(=O)N(C)CCOCCOc3cc(-c4scnc4C)ccc3CNC(=O)[C@@H]3C[C@@H](O)CN3C(=O)[C@H](c3cc(C)no3)C(C)C)nc3c(F)c(-c4cc(O)cc5ccccc45)c(Cl)cc23)CC1` [compound 331, (2S,4R)-N-(2-(2-(2-(3-((6-chloro-8-fluoro-7-(3-hydroxynaphthalen-1-yl)-4-(4-propionylpiperazin-1-yl)quinazolin-2-yl)amino)-N-methylpropanamido)ethoxy)ethoxy)-4-(4-methylthiazol-5-yl)benzyl)-4-hydroxy-1-((S)-3-methyl-2-(3-methylisoxazol-5-yl)butanoyl)pyrrolidine-2-carboxamide]: where the note is “H2030 cells, 0.3 μM”, the “Percent Degradation … 0.3” value is “C (C ≤ 35)”. Further, the “Percent Degradation … 1” value (H2030 cells, 1 μM) is reported as “C (C ≤ 35)”. Moreover, the “Percent Degradation … (μM): 3” value (H2030 cells, 3 μM) is listed as “C (C ≤ 35)”. Where the note is “H2030 cells”, the Dmax was no more than 35%.
Compound `C=CC(=O)N1CCN(c2nc(NCCC(=O)N(C)CCOCCOCCOCCOCC(=O)N[C@H](C(=O)N3C[C@@H](O)C[C@H]3C(=O)N[C@@H](C)c3ccc(-c4scnc4C)cc3)C(C)(C)C)nc3c(F)c(-c4cc(O)cc5ccccc45)c(Cl)cc23)CC1` [compound 199, (2S,4S)-1-((2S)-21-((4-(4-acryloylpiperazin-1-yl)-6-chloro-8-fluoro-7-(3-hydroxynaphthalen-1-yl)quinazolin-2-yl)amino)-2-(tert-butyl)-18-methyl-4,19-dioxo-6,9,12,15-tetraoxa-3,18-diazahenicosanoyl)-4-hydroxy-N-((S)-1-(4-(4-methylthiazol-5-yl)phenyl)ethyl)pyrrolidine-2-carboxamide] had a Dmax of no more than 35%. In addition, for the setting “H2030, 0.3 μM”, the “Percent Degradation at Indicated Concentration (μM)” value was “C (Percent Degradation: C ≤ 35)”. In addition, the “Percent Degradation at Indicated Concentration (μM)” value (H2030, 1 μM) is “C (Percent Degradation: C ≤ 35)”. For the same compound, the “Percent Degradation at Indicated Concentration (μM)” value (H2030, 3 μM) is “C (Percent Degradation: C ≤ 35)”.
`C=CC(=O)N1CCN(c2nc(Nc3ccc(OCCOCCOCC(=O)N[C@H](C(=O)N4C[C@H](O)C[C@H]4C(=O)N[C@@H](C)c4ccc(-c5scnc5C)cc4)C(C)(C)C)cc3)nc3c(F)c(-c4cc(O)cc5ccccc45)c(Cl)cc23)CC1` [compound 482] showed a Dmax of no more than 35%. Under “H2030, 0.3 μM”, the “Percent Degradation at Indicated Concentration (μM)” value is reported as “C (Percent Degradation: C ≤ 35)”. In addition, the “Percent Degradation at Indicated Concentration (μM)” value (H2030, 1 μM) is given as “C (Percent Degradation: C ≤ 35)”. Further, the “Percent Degradation at Indicated Concentration (μM)” value (H2030, 3 μM) is given as “C (Percent Degradation: C ≤ 35)”.
In the case of `C=CC(=O)N1CCN(c2nc(NCCC(=O)N(C)CCOCCOCCOCCOCCNC(=O)c3ccc(NC(=O)[C@@H]4N[C@@H](CC(C)(C)C)[C@](C#N)(c5ccc(Cl)cc5F)[C@H]4c4cccc(Cl)c4F)c(OC)c3)nc3c(F)c(-c4cc(O)cc5ccccc45)c(Cl)cc23)CC1` [compound 304, (2R,3S,4R,5S)-N-(4-((18-((4-(4-acryloylpiperazin-1-yl)-6-chloro-8-fluoro-7-(3-hydroxynaphthalen-1-yl)quinazolin-2-yl)amino)-15-methyl-16-oxo-3,6,9,12-tetraoxa-15-azaoctadecyl)carbamoyl)-2-methoxyphenyl)-3-(3-chloro-2-fluorophenyl)-4-(4-chloro-2-fluorophenyl)-4-cyano-5-neopentylpyrrolidine-2-carboxamide], the Dmax was no more than 35%. Moreover, the “Percent Degradation at Indicated Concentration (μM)” value (H2030, 0.3 μM) is given as “C (Percent Degradation: C ≤ 35)”. In addition, the “Percent Degradation at Indicated Concentration (μM)” value (H2030, 1 μM) is given as “C (Percent Degradation: C ≤ 35)”. The “Percent Degradation at Indicated Concentration (μM)” value (H2030, 3 μM) is “C (Percent Degradation: C ≤ 35)”.
On to `CCC(=O)N1CCN(c2nc(NCCC(=O)N(C)CCOCCOCCOCCOCCNc3cccc4c3C(=O)N(C3CCC(=O)NC3=O)C4=O)nc3c(F)c(-c4cc(O)cc5ccccc45)c(Cl)cc23)CC1` (stereo not drawn) [compound 45, 3-((6-chloro-8-fluoro-7-(3-hydroxynaphthalen-1-yl)-4-(4-propionylpiperazin-1-yl)quinazolin-2-yl)amino)-N-(14-((2-(2,6-dioxopiperidin-3-yl)-1,3-dioxoisoindolin-4-yl)amino)-3,6,9,12-tetraoxatetradecyl)-N-methylpropanamide], for which the “Percent Degradation … 0.3” value (H2030 cells, 0.3 μM) is “C (C ≤ 35)”. Besides, the “Percent Degradation … 1” value (H2030 cells, 1 μM) is recorded as “C (C ≤ 35)”. For the same compound, the “Percent Degradation … (μM): 3” value (H2030 cells, 3 μM) is on record as “C (C ≤ 35)”. The same compound showed a Dmax (H2030 cells) of no more than 35%.
In turn, `Cc1ncsc1-c1ccc([C@H](C)NC(=O)[C@@H]2C[C@@H](O)CN2C(=O)[C@@H](NC(=O)COCCOCCOCCOCCN(C)C(=O)CCNc2nc(N3CCN(C(N)=O)CC3)c3cc(Cl)c(-c4cc(O)cc5ccccc45)c(F)c3n2)C(C)(C)C)cc1` [compound 184, 4-(6-chloro-8-fluoro-2-(((S)-20-((2S,4R)-4-hydroxy-2-(((S)-1-(4-(4-methylthiazol-5-yl)phenyl)ethyl)carbamoyl)pyrrolidine-1-carbonyl)-4,21,21-trimethyl-3,18-dioxo-7,10,13,16-tetraoxa-4,19-diazadocosyl)amino)-7-(3-hydroxynaphthalen-1-yl)quinazolin-4-yl)piperazine-1-carboxamide] displayed a Dmax of no more than 35%. The “Percent Degradation at Indicated Concentration (μM)” value (H2030, 0.3 μM) was “C (Percent Degradation: C ≤ 35)”. Further, the “Percent Degradation at Indicated Concentration (μM)” value (H2030, 1 μM) is on record as “C (Percent Degradation: C ≤ 35)”. Also, the “Percent Degradation at Indicated Concentration (μM)” value (H2030, 3 μM) was “C (Percent Degradation: C ≤ 35)”.
On to `CCC(=O)N1CCN(c2nc(NCCC(=O)N(C)CCOCCOCCOCCOCCOc3ccc4c(c3)C(=O)N(C3CCC(=O)NC3=O)C4=O)nc3c(F)c(-c4cc(O)cc5ccccc45)c(Cl)cc23)CC1` (stereo not drawn) [compound 50, 3-((6-chloro-8-fluoro-7-(3-hydroxynaphthalen-1-yl)-4-(4-propionylpiperazin-1-yl)quinazolin-2-yl)amino)-N-(14-((2-(2,6-dioxopiperidin-3-yl)-1,3-dioxoisoindolin-5-yl)oxy)-3,6,9,12-tetraoxatetradecyl)-N-methylpropanamide], for which the “Percent Degradation … 0.3” value (H2030 cells, 0.3 μM) is “C (C ≤ 35)”. The “Percent Degradation … 1” value (H2030 cells, 1 μM) is recorded as “C (C ≤ 35)”. The “Percent Degradation … (μM): 3” value (H2030 cells, 3 μM) was “C (C ≤ 35)”. The Dmax (H2030 cells) is no more than 35%.
`C=CC(=O)N1CCN(c2nc(NCCC(=O)N(C)CCOCCOCCOCCOCCOc3cc(-c4scnc4C)ccc3CNC(=O)[C@@H]3C[C@@H](O)CN3C(=O)[C@H](c3cc(C)no3)C(C)C)nc3c(F)c(-c4c(O)cccc4F)c(Cl)cc23)CC1` (atropisomer, axis not shown) [compound 132, (25,4R)-N-(2-((18-(((S)-4-(4-acryloylpiperazin-1-yl)-6-chloro-8-fluoro-7-(2-fluoro-6-hydroxyphenyl)quinazolin-2-yl)amino)-15-methyl-16-oxo-3,6,9,12-tetraoxa-15-azaoctadecyl)oxy)-4-(4-methylthiazol-5-yl)benzyl)-4-hydroxy-1-((S)-3-methyl-2-(3-methylisoxazol-5-yl)butanoyl)pyrrolidine-2-carboxamide] yielded a Dmax of no more than 35%. Besides, where the note is “H2030, 0.3 μM”, the “Percent Degradation at Indicated Concentration (μM)” value is “C (Percent Degradation: C ≤ 35)”. Besides, under “H2030, 1 μM”, the “Percent Degradation at Indicated Concentration (μM)” value is given as “C (Percent Degradation: C ≤ 35)”. For the same compound, for the setting “H2030, 3 μM”, the “Percent Degradation at Indicated Concentration (μM)” value is on record as “C (Percent Degradation: C ≤ 35)”.
As to `C=CC(=O)N1CCN(c2nc(O[C@H](C)CN3CCC(OCCOCCOCC(=O)N[C@H](C(=O)N4C[C@H](O)C[C@H]4C(=O)N[C@@H](C)c4ccc(-c5scnc5C)cc4)C(C)(C)C)CC3)nc3c2CCN(c2cc(O)cc4ccccc24)C3)CC1` [compound 407, (2S,4R)-1-((S)-2-(2-(2-(2-((1-((R)-2-((4-(4-acryloylpiperazin-1-yl)-7-(3-hydroxynaphthalen-1-yl)-5,6,7,8-tetrahydropyrido[3,4-d]pyrimidin-2-yl)oxy)propyl)piperidin-4-yl)oxy)ethoxy)ethoxy)acetamido)-3,3-dimethylbutanoyl)-4-hydroxy-N-((S)-1-(4-(4-methylthiazol-5-yl)phenyl)ethyl)pyrrolidine-2-carboxamide], the “Percent Degradation at Indicated Concentration (μM)” value is on record as “C (Percent Degradation: C ≤ 35)” (H2030 cells, 0.3 μM); “C (Percent Degradation: C ≤ 35)” (H2030 cells, 1 μM); “C (Percent Degradation: C ≤ 35)” (H2030 cells, 3 μM).
